The values that follow come from US7425631B2 (Amgen Inc., priority 2003, dated 2008).

For orientation: Ki means a dissociation constant, usually derived from enzyme kinetics or from competition with a known ligand. As a reminder, the IC50 is the point on the concentration scale where inhibition reaches its midpoint.

Structures are written as SMILES.

One assay deals with T1, human bradykinin B1 receptor (Homo sapiens, UniProt P46663).
T1 construct: expressed in transfected cells; host or cells: CHO-d-AQN cells (membranes prepared in-house)
T1 sequence (P46663 1-353): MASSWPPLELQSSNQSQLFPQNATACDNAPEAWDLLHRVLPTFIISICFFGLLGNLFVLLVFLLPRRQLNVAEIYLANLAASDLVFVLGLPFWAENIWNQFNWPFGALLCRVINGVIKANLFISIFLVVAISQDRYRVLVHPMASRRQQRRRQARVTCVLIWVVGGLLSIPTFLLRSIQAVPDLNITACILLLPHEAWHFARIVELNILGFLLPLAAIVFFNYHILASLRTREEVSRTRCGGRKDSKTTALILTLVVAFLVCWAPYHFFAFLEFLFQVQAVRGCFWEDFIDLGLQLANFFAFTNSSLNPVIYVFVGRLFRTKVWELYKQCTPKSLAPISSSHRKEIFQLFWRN
As to the kind of experiment: Radioligand binding assay for human B1 bradykinin receptor ([3H]des-arg10 kallidin). As to conditions: membranes of CHO cells expressing human B1 receptor; read-out: binding Ki's to the hB1 receptor. The method, then:
Preparation of membranes expressing human B1 and human B2 bradykinin receptor. Membranes were prepared from CHO-d^−AQN cells stably transfected with human bradykinin B1 receptor cDNA. For large-scale production of membranes, cells were grown in 100 L suspension culture to 1.0E8 cells/mL then harvested using the Viafuge at continuous centrifugation of 1000 g. For pilot studies, cells were grown in 2 L spinner culture and harvested by centrifugation (1900 g, 10 min, 4° C.). […] The resulting cell lysate was centrifuged (1900 g, 10 min, 4° C.), and the crude particulate fraction isolated by centrifugation (142,000 g, 1 h, 4° C.) of the low-speed supernatant. The resulting pellet was resuspended in ⅓ the original lysis buffer volume, homogenized, and recentrifuged as above. The membrane pellet was resuspended by homogenization in storage buffer (25 mM HEPES, pH 7.4, 3 mM MgCl2, 10% (w/v) sucrose and Complete Protease Inhibitor tablets (EDTA-free)). Single-use aliquots were made and flash-frozen in liquid N2 prior to storage at −80° C.
Radioligand Binding Assay for human B1 and human B2 bradykinin receptor. […] Membranes (50 μL) were added last. […] Nonspecific binding was defined with 2 μM des-Arg^10Leu^9 kallidin. […] The assay mixture was incubated with shaking for 1 hr at RT and then filtered through GF/C plates presoaked in 0.5% polyethyleneimine (Unifilter; Perkin Elmer Life Sciences) using a Filtermate 96-well harvester (Perkin Elmer Life Sciences). […] The plates were sealed and activity read on Topcount (Perkin Elmer Life Sciences) using a count time of 3 min per channel.
Data analysis. Data was analyzed in XLFit with the four-parameter logistic y=A+((B-A)/(1+((C/x)^D))) and fit with the Levenburg-Marquardt algorithm. Raw cpm were converted to percent of control values prior to analysis (POC=((compound cpm−nonspecfic cpm)/(no-compound cpm−nonspecific cpm)*100)). Ki values were determined from the IC50 using the Cheng-Prusoff equation and Kd values determined by direct saturation binding of the radioligands.
On to `O=C(C[C@@H](NS(=O)(=O)c1cc(Cl)cc(Cl)c1)c1ccccc1)NC1CCOc2cc(CN3CCCCC3)ccc21` (stereo in doubt) [Example 1h, 3-(3,5-Dichloro-benzenesulfonylamino)-3-phenyl-N-(7-piperidin-1-ylmethyl-chroman-4-yl)-propionamide], for which the inhibition constant (Ki) was less than 100 nM.
As for `O=C(C[C@@H](NS(=O)(=O)c1ccc2ccccc2c1)c1ccccc1)NC1CCOc2cc(CN3CCOCC3)ccc21` (stereo in doubt) [Example 3j, N-(7-Morpholin-4-ylmethyl-chroman-4-yl)-3-(naphthalen-2-yl-sulfonylamino)-3-phenyl-propionamide], the Ki is less than 100 nM.
For `CN1c2cc(CN3CCCCC3)ccc2C(NC(=O)C[C@@H](NS(=O)(=O)c2ccc3ccccc3c2)c2ccccc2)CS1(=O)=O` (stereo in doubt) [Example 13, 3-(Naphthalen-2-yl-sulfonylamino)-N-(1-methyl-2,2-dioxo-7-piperidin-1-ylmethyl-1,2,3,4-tetrahydro-2λ^6-benzo[c][1,2]thiazin-4-yl)-3-phenyl-propionamide], the Ki was less than 100 nM.
On to `CN1CCN(Cc2ccc3c(c2)OCCC3NC(=O)C[C@@H](NS(=O)(=O)c2ccc3ccccc3c2)c2ccccc2)CC1` (stereo partly drawn) [Example 1a, N-[7-(4-Methyl-piperazin-1-ylmethyl)-chroman-4-yl]-3-(naphthyl-2-ylsulfonylamino)-3-phenyl-propionamide], for which the inhibitory constant (Ki) is less than 100 nM.
For `O=C(C[C@@H](NS(=O)(=O)c1ccc2ccccc2c1)c1ccccc1)NC1CCOc2cc(CN3CCCC3)ccc21` (stereo partly drawn) [Example 1d, 3-(Naphthalen-2-ylsulfonylamino)-3-phenyl-N-(7-pyrrolidin-1-ylmethyl-chroman-4-yl)-propionamide], the Ki was less than 100 nM.
As to `O=C(C[C@@H](NS(=O)(=O)c1ccc(Cl)c(Cl)c1)c1ccccc1)NC1CCOc2cc(CN3CCCCC3)ccc21` (stereo partly drawn) [Example 1f, 3-(3,4-Dichloro-benzenesulfonylamino)-3-phenyl-N-(7-piperidin-1-ylmethyl-chroman-4-yl)-propionamide], the Ki was less than 100 nM.
Same read-out and setting: for `CC(C)NCc1ccc2c(c1)OCCC2NC(=O)C[C@@H](NS(=O)(=O)c1ccc2ccccc2c1)c1ccccc1` (stereo partly drawn) [Example 3, N-[7-(Isopropylamino-methyl)-chroman-4-yl]-3-(naphthalen-2-ylsulfonylamino)-3-phenyl-propionamide] the value was less than 100 nM; for `CC(C)N(C)Cc1ccc2c(c1)OCCC2NC(=O)C[C@@H](NS(=O)(=O)c1ccc2ccccc2c1)c1ccccc1` (stereo partly drawn) [Example 3b], less than 100 nM.
For `CCN(Cc1ccc2c(c1)OCCC2NC(=O)C[C@@H](NS(=O)(=O)c1ccc2ccccc2c1)c1ccccc1)C(C)(C)C` (stereo partly drawn) [Example 3f, N-{7-[(tert-Butyl-ethyl-amino)-methyl]-chroman-4-yl}-3-(naphthalen-2-yl-sulfonylamino)-3-phenyl-propionamide], the inhibition constant (Ki) is less than 100 nM.
On the same count and under the same terms, next, `C[C@@H]1CC[C@@H](C)N1Cc1ccc2c(c1)OCCC2NC(=O)C[C@@H](NS(=O)(=O)c1ccc2ccccc2c1)c1ccccc1` (stereo partly drawn) [Example 3h, N-[7-(2R, 5R-Dimethyl-pyrrolidin-1-ylmethyl)-chroman-4-yl]-3-(naphthalen-2-yl-sulfonylamino)-3-phenyl-propionamide]: less than 100 nM; `CCN(CC)Cc1ccc2c(c1)OCCC2NC(=O)C[C@@H](NS(=O)(=O)c1ccc2ccccc2c1)c1ccccc1` (stereo partly drawn) [Example 3l, N-(7-Diethylaminomethyl-chroman-4-yl)-3-(naphthalen-2-yl-sulfonylamino)-3-phenyl-propionamide]: less than 100 nM.
Still for that read-out and setting: next, `O=C(C[C@@H](NS(=O)(=O)c1ccc2ccccc2c1)c1ccccc1)NC1CCc2c(CN3CCCCC3)cccc21` (stereo partly drawn) [Example 4a, 3-(Naphthalen-2-yl-sulfonylamino)-3-phenyl-N-(4-piperidin-1-ylmethyl-indan-1-yl)-propionamide]: less than 100 nM.
Same read-out and setting: next, `O=C(C[C@@H](NS(=O)(=O)c1ccc2ccccc2c1)c1ccccc1)NC1CCc2cc(CN3CCCCC3)ccc21` (stereo partly drawn) [Example 5a, 3-(Naphthalen-2-yl-sulfonylamino)-3-phenyl-N-(5-piperidin-1-ylmethyl-indan-1-yl)-propionamide]: less than 100 nM.

The next assay has as its target T2, human B1 receptor (Homo sapiens, UniProt P46663).
T2 construct: expressed in transfected cells
T2 sequence (P46663 1-353): T1 sequence (P46663 1-353)
The experiment in a line: In vitro assay of human B1 receptor function using calcium flux (aequorin luminescence). The assay is classed as cell-based. Particulars: CHO D-/hB1/Aequorin cells, agonist 20 nM des-Arg10-Kallidin (EC80); read-out: binding IC50's to hB1 receptor function. The procedure:
Activation of the Gq linked B1 receptor results in an increase in intracellular calcium. […] Aequorin is a 21-kDa photoprotein that forms a bioluminescent complex when linked to the chromophore cofactor coelenterazine.
Following coelenterazine incubation, an automated flash-luminometer platform was used to dispense the B1 antagonist compounds (dissolved in DMSO and diluted with buffer to the desired concentration (final DMSO concentration <1% DMSO)) to the cell plate, a CCD camera situated underneath the cell plate took 12 images of the cell plate at 5 second intervals to determine if there was any agonist activity with the compounds. The hB1 agonist, des-Arg10-Kallidin, was added to the cell plate and another 12 images were recorded to determine the IC50 of the antagonist(s).
`O=C(C[C@@H](NS(=O)(=O)c1ccc(Cl)c(Cl)c1)c1ccccc1)NC1CCOc2cc(CN3CCCCC3)ccc21` (stereo partly drawn) [Example 1f, 3-(3,4-Dichloro-benzenesulfonylamino)-3-phenyl-N-(7-piperidin-1-ylmethyl-chroman-4-yl)-propionamide]: the IC50 is less than 10 nM.
Take `O=C(C[C@@H](NS(=O)(=O)c1ccc2ccccc2c1)c1ccccc1)NC1CCc2cc(CN3CCCCC3)ccc21` (stereo partly drawn) [Example 5a, 3-(Naphthalen-2-yl-sulfonylamino)-3-phenyl-N-(5-piperidin-1-ylmethyl-indan-1-yl)-propionamide]: the IC50 is less than 10 nM.
Turning to `O=C(C[C@@H](NS(=O)(=O)c1cccc(C(F)(F)F)c1)c1ccc(F)cc1)N[C@@H]1CCCc2cc(CNC3CCCC3)ccc21` [n, (3R)-N-((1R)-6-((cyclopentylamino)methyl)-1,2,3,4-tetrahydro-1-naphthalenyl)-3-(4-fluorophenyl)-3-(((3-(trifluoromethyl)phenyl)sulfonyl)-amino)propanamide], the IC50 was less than 10 nM.
On the same count and under the same terms, for `O=C(C[C@@H](NS(=O)(=O)c1cccc(C(F)(F)F)c1)c1ccc(F)cc1)N[C@@H]1CCCc2cc(CN3CCCC3)ccc21` [o, (3R)-3-(4-fluorophenyl)-N-((1R)-6-(1-pyrrolidinylmethyl)-1,2,3,4-tetrahydro-1-naphthalenyl)-3-(((3-(trifluoromethyl)phenyl)sulfonyl)-amino)propanamide] the value was less than 10 nM; for `O=C(C[C@@H](NS(=O)(=O)c1cccc(C(F)(F)F)c1)c1ccccc1)N[C@@H]1CCCc2cc(CN3CCC(F)(F)CC3)ccc21` [t, (3R)-N-((1R)-6-((4,4-difluoro-1-piperidinyl)methyl)-1,2,3,4-tetrahydro-1-naphthalenyl)-3-phenyl-3-(((3-(trifluoromethyl)phenyl)-sulfonyl)amino)propanamide], less than 10 nM.
